Data as given in the supplement of paper PMC10307832.

These cell lines were tested with CCCS(=O)(=O)Nc1ccc(F)c(C(=O)c2c[nH]c3ncc(-c4ccc(Cl)cc4)cc23)c1F [Vemurafenib] + CC(=O)Nc1cccc(-n2c(=O)n(C3CC3)c(=O)c3c(Nc4ccc(I)cc4F)n(C)c(=O)c(C)c32)c1 [Trametinib] (partner 0.02 µM) (assay: relative viability (nuclei count vs DMSO), 5 days (fraction); higher = more cells survive). Conditions: first compound 0.03162 µM.
Method in brief: (§1)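 Each reported value is a median over duplicate plates. It expresses relative viability: treated-well nuclei count divided by vehicle-well nuclei count. Lung cancer cell lines in 1536-well plates were dosed by pin tool a day after seeding, alone with one drug or with a fixed anchor-drug dose plus five library-drug doses (not always all listed) in √10 steps, and nuclei were counted after 5 days.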

Row | Cell Line | relative viability
1 | NCI-H2087 | 0.204
2 | NCI-H1734 | 0.655
3 | LCLC-103H | 0.668
4 | LU99A | 0.521
5 | NCI-H460 | 0.137
6 | NCI-H2170 | 0.888
7 | SK-LU-1 | 0.468
8 | NCI-H522 | 0.695
9 | COR-L23 | 0.619
10 | HCC-15 | 0.373
11 | NCI-H1944 | 0.453
12 | EMC-BAC-2 | 0.806
13 | NCI-H1395 | 1.04
14 | LC-2-ad | 0.868
15 | NCI-H2085 | 0.529
16 | NCI-H647 | 0.496
17 | HARA | 0.742

Row | Cell Line | relative viability
18 | NCI-H3122 | 0.219
19 | NCI-H358 | 0.155
20 | CAL-12T | 0.28
21 | COR-L 105 | 0.418
22 | NCI-H520 | 0.688
23 | NCI-H2228 | 0.357
24 | NCI-H23 | 0.295
25 | HCC-827 | 0.52
26 | NCI-H2347 | 0.266
27 | LXF-289 | 0.656
28 | NCI-H1666 | 0.928
29 | RERF-LC-KJ | 0.826
30 | NCI-H650 | 1.05
31 | NCI-H322M | 0.462
32 | NCI-H596 | 0.792
33 | 201T | 0.702

Same assay, conditions: first compound 0.1 µM

Row | Cell Line | relative viability
34 | NCI-H2087 | 0.14
35 | NCI-H1734 | 0.641
36 | LCLC-103H | 0.619
37 | LU99A | 0.563
38 | NCI-H460 | 0.131
39 | SK-LU-1 | 0.515
40 | NCI-H522 | 0.63
41 | COR-L23 | 0.58
42 | HCC-15 | 0.363
43 | EMC-BAC-2 | 0.907
44 | NCI-H1395 | 1.03
45 | LC-2-ad | 0.815
46 | NCI-H2085 | 0.477
47 | NCI-H647 | 0.435
48 | HARA | 0.325
49 | NCI-H3122 | 0.271
50 | NCI-H358 | 0.119
51 | CAL-12T | 0.289
52 | LCLC-97TM1 | 0.184
53 | NCI-H520 | 0.599
54 | NCI-H2228 | 0.524
55 | NCI-H23 | 0.314
56 | NCI-H2347 | 0.215
57 | LXF-289 | 0.599
58 | NCI-H1666 | 0.786
59 | RERF-LC-KJ | 0.921
60 | NCI-H650 | 0.944
61 | NCI-H596 | 0.723
62 | 201T | 0.681

Same assay, conditions: first compound 0.3162 µM

Row | Cell Line | relative viability
63 | NCI-H2087 | 0.292
64 | NCI-H1734 | 0.66
65 | LCLC-103H | 0.685
66 | NCI-H460 | 0.138
67 | NCI-H2170 | 0.846
68 | SK-LU-1 | 0.459
69 | NCI-H522 | 0.786
70 | COR-L23 | 0.433
71 | HCC-15 | 0.43
72 | NCI-H1944 | 0.41
73 | NCI-H1395 | 0.89
74 | LC-2-ad | 0.998
75 | NCI-H2085 | 0.663
76 | NCI-H647 | 0.37
77 | HARA | 0.71
78 | NCI-H3122 | 0.243

Row | Cell Line | relative viability
79 | NCI-H358 | 0.15
80 | CAL-12T | 0.438
81 | COR-L 105 | 0.428
82 | LCLC-97TM1 | 0.201
83 | NCI-H520 | 0.706
84 | NCI-H2228 | 0.668
85 | NCI-H23 | 0.457
86 | HCC-827 | 0.73
87 | NCI-H2347 | 0.263
88 | LXF-289 | 0.697
89 | NCI-H1666 | 1.04
90 | RERF-LC-KJ | 0.872
91 | NCI-H650 | 0.808
92 | NCI-H322M | 0.723
93 | NCI-H596 | 0.885
94 | 201T | 0.752

Same assay, conditions: first compound 1 µM

Row | Cell Line | relative viability
95 | NCI-H2087 | 0.256
96 | NCI-H1734 | 0.643
97 | LCLC-103H | 0.768
98 | LU99A | 0.664
99 | NCI-H460 | 0.218
100 | NCI-H2170 | 0.89
101 | SK-LU-1 | 0.432
102 | NCI-H522 | 0.783
103 | COR-L23 | 0.691
104 | HCC-15 | 0.429
105 | NCI-H1944 | 0.423
106 | EMC-BAC-2 | 1.08
107 | NCI-H1395 | 0.971
108 | LC-2-ad | 0.921
109 | NCI-H2085 | 0.621
110 | NCI-H647 | 0.488
111 | HARA | 0.757

Row | Cell Line | relative viability
112 | NCI-H3122 | 0.304
113 | NCI-H358 | 0.175
114 | CAL-12T | 0.442
115 | COR-L 105 | 0.655
116 | LCLC-97TM1 | 0.268
117 | NCI-H520 | 0.662
118 | NCI-H2228 | 0.439
119 | NCI-H23 | 0.366
120 | HCC-827 | 0.585
121 | NCI-H2347 | 0.251
122 | LXF-289 | 0.733
123 | NCI-H1666 | 0.86
124 | RERF-LC-KJ | 0.783
125 | NCI-H650 | 1.09
126 | NCI-H322M | 0.547
127 | NCI-H596 | 0.888
128 | 201T | 0.779

These cell lines were tested with COc1cccc2cc(-c3nc([C@H]4CC[C@H](C(=O)O)CC4)n4ncnc(N)c34)[nH]c12 [OSI-027] + Cc1cc(Nc2cc(N3CCN(C)CC3)nc(Sc3ccc(NC(=O)C4CC4)cc3)n2)n[nH]1 [Tozasertib] (partner 0.1 µM) in the same assay as above. Conditions: first compound 0.01 µM.
Method in brief: as §1

Row | Cell Line | relative viability
129 | NCI-H2087 | 0.228
130 | NCI-H1734 | 0.299
131 | LCLC-103H | 0.49
132 | LU99A | 0.249
133 | NCI-H460 | 0.511
134 | NCI-H2170 | 0.71
135 | SK-LU-1 | 0.295
136 | NCI-H522 | 0.536
137 | COR-L23 | 0.18
138 | HCC-15 | 0.458
139 | NCI-H1944 | 0.239
140 | EMC-BAC-2 | 0.281
141 | NCI-H1395 | 0.675
142 | LC-2-ad | 0.464
143 | NCI-H2085 | 0.785
144 | NCI-H647 | 0.401

Row | Cell Line | relative viability
145 | HARA | 0.472
146 | NCI-H3122 | 0.542
147 | NCI-H358 | 0.105
148 | CAL-12T | 0.377
149 | COR-L 105 | 0.335
150 | LCLC-97TM1 | 0.299
151 | NCI-H520 | 0.429
152 | NCI-H2228 | 0.246
153 | NCI-H23 | 0.636
154 | HCC-827 | 0.447
155 | NCI-H2347 | 0.362
156 | LXF-289 | 0.17
157 | NCI-H1666 | 0.611
158 | RERF-LC-KJ | 0.453
159 | NCI-H650 | 0.711
